This passage reports IC50 results from patent publication US20130344026A1, “Dimeric Smac Mimetics” (priority 2009, published 2013).

Read-outs that look alike come from different tables or passages of the source. Some results are limits rather than exact numbers.

This assay relates to PANC-1 cells. Nature of the assay: cell viability assay in PANC-1 cells (compound alone, + 100 ng/ml TNFa, + 300 ng/ml TRAIL). Format: cell-based. Particulars: Tables 6-10.
Where [1] appears, read: Homo sapiens, PANC-1, compound alone, read-out: IC50 (μM) in cell viability assay in PANC-1 cells: Compound alone.
The mark [2] stands for this setting: with 100 ng/ml TNFa, read-out: IC50 (μM) in cell viability assay in PANC-1 cells: Compound + 100 ng/ml TNFa.
The mark [3] stands for this setting: with 300 ng/ml TRAIL, read-out: IC50 (μM) in cell viability assay in PANC-1 cells: Compound + 300 ng/ml TRAIL.
Setting [4] is: compound alone, read-out: IC50 (μM) in cell viability assay in PANC-1 cells: Compound alone.

Turning to `CN[C@@H](C)C(=O)N[C@H](C(=O)N1C[C@@H](NC(=O)c2cccc(C(=O)N[C@H]3C[C@@H](C(=O)NCc4cccc5[nH]ccc45)N(C(=O)[C@@H](NC(=O)[C@H](C)NC)C(C)(C)C)C3)c2)C[C@H]1C(=O)NCc1cccc2[nH]ccc12)C(C)(C)C` [Compound 7], the IC50 is, setting by setting: under setting [1], more than 1 µM; under setting [2], 0.383 µM; under setting [3], 0.217 µM.
Regarding `CN[C@@H](C)C(=O)N[C@H](C(=O)N1C[C@@H](NC(=O)c2cccc(C(=O)N[C@H]3C[C@@H](C(=O)NCCc4ccc(S(N)(=O)=O)cc4)N(C(=O)[C@@H](NC(=O)[C@H](C)NC)C(C)(C)C)C3)c2)C[C@H]1C(=O)NCCc1ccc(S(N)(=O)=O)cc1)C(C)(C)C` [Compound 8], the IC50 reads like this: under setting [1], more than 1 µM; under setting [2], more than 1 µM; under setting [3], more than 1 µM.
For the molecule `CN[C@@H](C)C(=O)N[C@H](C(=O)N1C[C@@H](NC(=O)c2cccc(C(=O)N[C@H]3C[C@@H](C(=O)NCCc4ccc(O)c(O)c4)N(C(=O)[C@@H](NC(=O)[C@H](C)NC)C(C)(C)C)C3)c2)C[C@H]1C(=O)NCCc1ccc(O)c(O)c1)C(C)(C)C` [Compound 9], the IC50 under setting [1] was more than 1 µM, the IC50 under setting [2] is more than 1 µM and the IC50 under setting [3] was more than 1 µM.
For the molecule `CN[C@@H](C)C(=O)N[C@H](C(=O)N1C[C@@H](NC(=O)c2cccc(C(=O)N[C@H]3C[C@@H](C(=O)N[C@H](C)Cc4ccccc4)N(C(=O)[C@@H](NC(=O)[C@H](C)NC)C(C)(C)C)C3)c2)C[C@H]1C(=O)NC(C)Cc1ccccc1)C(C)(C)C` (stereo partly drawn) [Compound 10], the IC50 under setting [1] is more than 1 µM, the IC50 under setting [2] was determined as 0.065 µM and the IC50 under setting [3] was 0.085 µM.
For `CN[C@@H](C)C(=O)N[C@H](C(=O)N1C[C@@H](NC(=O)c2cc(C(=O)N[C@H]3C[C@@H](C(=O)N[C@H](C)Cc4ccccc4)N(C(=O)[C@@H](NC(=O)[C@H](C)NC)C(C)(C)C)C3)[nH]n2)C[C@H]1C(=O)N[C@H](C)Cc1ccccc1)C(C)(C)C` [Compound 11], the IC50 under setting [1] was more than 1 µM, the IC50 under setting [2] is 0.834 µM and the IC50 under setting [3] is 0.545 µM.
For `CN[C@@H](C)C(=O)N[C@@H](CC#CC#CC[C@H](NC(=O)[C@H](C)NC)C(=O)N1CCC[C@H]1CNC(=O)c1ccccc1)C(=O)N1CCC[C@H]1CNC(=O)c1ccccc1` [Compound 14], the IC50 under setting [1] is more than 1 µM, the IC50 under setting [2] is more than 1 µM and the IC50 under setting [3] is more than 1 µM.
On to `CN[C@@H](C)C(=O)N[C@@H](CC#CC#CC[C@H](NC(=O)[C@H](C)NC)C(=O)N1CCC[C@H]1CNC(=O)c1ccccn1)C(=O)N1CCC[C@H]1CNC(=O)c1ccccn1` [Compound 15], for which the IC50 runs as follows: under setting [1], more than 1 µM; under setting [2], 0.209 µM; under setting [3], 0.235 µM.
As for `CN[C@@H](C)C(=O)N[C@@H](CCCCCC[C@H](NC(=O)[C@H](C)NC)C(=O)N1CCC[C@H]1CNC(=O)c1ccccc1)C(=O)N1CCC[C@H]1CNC(=O)c1ccccc1` [Compound 16], the IC50 is more than 1 µM under setting [1], more than 1 µM under setting [2] and more than 1 µM under setting [3].
`CN[C@@H](C)C(=O)N[C@@H](CCCCCC[C@H](NC(=O)[C@H](C)NC)C(=O)N1CCC[C@H]1CNC(=O)c1ccccn1)C(=O)N1CCC[C@H]1CNC(=O)c1ccccn1` [Compound 17]: the IC50 under setting [1] is more than 1 µM, the IC50 under setting [2] is more than 1 µM and the IC50 under setting [3] was more than 1 µM.
On to `CN[C@@H](C)C(=O)N[C@@H](CCCCCC[C@H](NC(=O)[C@H](C)NC)C(=O)N1CCC[C@H]1CNC(=O)c1ccccc1O)C(=O)N1CCC[C@H]1CNC(=O)c1ccccc1O` [Compound 20], for which the IC50 runs as follows: under setting [1], more than 1 µM; under setting [2], more than 1 µM; under setting [3], more than 1 µM.
`CN[C@@H](C)C(=O)N[C@@H](CCCCCC[C@H](NC(=O)[C@H](C)NC)C(=O)N1CCC[C@H]1c1ncc(C(=O)NC(c2ccccc2)c2ccccc2)o1)C(=O)N1CCC[C@H]1c1ncc(C(=O)NC(c2ccccc2)c2ccccc2)o1` [Compound 23]: the IC50 was more than 1 µM under setting [1], more than 1 µM under setting [2] and more than 1 µM under setting [3].
On to `CN[C@@H](C)C(=O)N[C@H](C(=O)N1C[C@@H](NC(=O)c2cccc(C(=O)N[C@H]3C[C@@H](C(=O)N[C@H](C)c4ccccn4)N(C(=O)[C@@H](NC(=O)[C@H](C)NC)C(C)(C)C)C3)c2)C[C@H]1C(=O)N[C@H](C)c1ccccn1)C(C)(C)C` [Compound 25], for which the IC50 was more than 1 µM under setting [1], 0.375 µM under setting [2] and 0.293 µM under setting [3].
As to `CN[C@@H](C)C(=O)N[C@H](C(=O)N1C[C@@H](NC(=O)c2cccc(C(=O)N[C@H]3C[C@@H](C(=O)N[C@H](C)c4ccccn4)N(C(=O)[C@@H](NC(=O)[C@H](C)NC)C(C)(C)C)C3)c2)C[C@H]1C(=O)N[C@H](C)c1ccccn1)C(C)(C)C` [Compound 26], the IC50 is more than 1 µM under setting [4], more than 1 µM under setting [2] and more than 1 µM under setting [3].
As for `CN[C@@H](C)C(=O)N[C@@H](CCCCCC[C@H](NC(=O)[C@H](C)NC)C(=O)N1CCC[C@H]1CNC(=O)c1cnccn1)C(=O)N1CCC[C@H]1CNC(=O)c1cnccn1` [Compound 30], the IC50 is, setting by setting: under setting [1], more than 1 µM; under setting [2], more than 1 µM; under setting [3], more than 1 µM.
Take `CN[C@@H](C)C(=O)N[C@@H](CCCCCC[C@H](NC(=O)[C@H](C)NC)C(=O)N1CCC[C@H]1CNC(=O)c1c(OC)cccc1OC)C(=O)N1CCC[C@H]1CNC(=O)c1c(OC)cccc1OC` [Compound 35]: the IC50 under setting [1] was more than 1 µM, the IC50 under setting [2] is more than 1 µM and the IC50 under setting [3] was more than 1 µM.
On to `CN[C@@H](C)C(=O)N[C@@H](CCCCCC[C@H](NC(=O)[C@H](C)NC)C(=O)N1CCC[C@H]1CNC(=O)c1cc2ccccc2cc1OC)C(=O)N1CCC[C@H]1CNC(=O)c1cc2ccccc2cc1OC` [Compound 38], for which the IC50 reads like this: under setting [1], more than 1 µM; under setting [2], more than 1 µM; under setting [3], more than 1 µM.
As for `CN[C@@H](C)C(=O)N[C@@H](CCCCCC[C@H](NC(=O)[C@H](C)NC)C(=O)N1CCC[C@H]1c1ncc(C(=O)Nc2ccccc2)o1)C(=O)N1CCC[C@H]1c1ncc(C(=O)Nc2ccccc2)o1` [Compound 39], the IC50 was more than 1 µM under setting [1], more than 1 µM under setting [2] and more than 1 µM under setting [3].
For `CN[C@@H](C)C(=O)NC(C(=O)N1C[C@@H](NC(=O)c2cccc(C(=O)N[C@H]3CC(C(=O)N[C@@H]4CC5CCC4(C)C5(C)C)N(C(=O)[C@@H](NC(=O)[C@H](C)NC)C(C)(C)C)C3)c2)CC1C(=O)N[C@@H]1CC2CCC1(C)C2(C)C)C(C)(C)C` (stereo partly drawn) [Compound 40], the IC50 is, setting by setting: under setting [1], more than 1 µM; under setting [2], 0.555 µM; under setting [3], 0.517 µM.
Turning to `CN[C@@H](C)C(=O)NC(C(=O)N1C[C@@H](NC(=O)c2cccc(C(=O)N[C@H]3CC(C(=O)N[C@H](C)c4cccc5ccccc45)N(C(=O)[C@@H](NC(=O)[C@H](C)NC)C(C)(C)C)C3)c2)CC1C(=O)NC(C)c1cccc2ccccc12)C(C)(C)C` (stereo partly drawn) [Compound 41], the IC50 under setting [1] was more than 1 µM, the IC50 under setting [2] is 0.452 µM and the IC50 under setting [3] was determined as 0.434 µM.
For `CN[C@@H](C)C(=O)NC(C(=O)N1C[C@@H](NC(=O)c2cccc(C(=O)N[C@H]3CC(C(=O)N[C@H](CO)[C@H](O)c4ccccc4)N(C(=O)[C@@H](NC(=O)[C@H](C)NC)C(C)(C)C)C3)c2)CC1C(=O)N[C@H](CO)[C@@H](O)c1ccccc1)C(C)(C)C` (stereo partly drawn) [Compound 42], the IC50 was more than 1 µM under setting [1], 0.753 µM under setting [2] and 0.645 µM under setting [3].
The corresponding values for `CN[C@@H](C)C(=O)NC(C(=O)N1C[C@@H](NC(=O)c2cccc(C(=O)N[C@H]3CC(C(=O)N[C@H](CO)Cc4ccccc4)N(C(=O)[C@@H](NC(=O)[C@H](C)NC)C(C)(C)C)C3)c2)CC1C(=O)N[C@H](CO)Cc1ccccc1)C(C)(C)C` (stereo partly drawn) [Compound 43] are more than 1 µM, 0.05 µM and 0.048 µM.
As for `CN[C@@H](C)C(=O)N[C@H](C(=O)N1C[C@@H](NC(=O)c2cccc(C(=O)N[C@H]3C[C@@H](C(=O)N[C@@H]4CCCc5ccc(OC)cc54)N(C(=O)[C@@H](NC(=O)[C@H](C)NC)C(C)(C)C)C3)c2)C[C@H]1C(=O)N[C@@H]1CCCc2ccc(OC)cc21)C(C)(C)C` [Compound 44], the IC50 by setting is: under setting [1], more than 1 µM; under setting [2], 0.215 µM; under setting [3], 0.198 µM.
In the case of `CN[C@@H](C)C(=O)N[C@H](C(=O)N1C[C@@H](NC(=O)c2cccc(C(=O)N[C@H]3C[C@@H](C(=O)N[C@@H]4CCCc5cc(OC)ccc54)N(C(=O)[C@@H](NC(=O)[C@H](C)NC)C(C)(C)C)C3)c2)C[C@H]1C(=O)N[C@@H]1CCCc2cc(OC)ccc21)C(C)(C)C` [Compound 45], the IC50 reads like this: under setting [1], more than 1 µM; under setting [2], 0.008 µM; under setting [3], 0.014 µM.
For `CCC1(NC(=O)[C@@H]2C[C@H](NC(=O)c3cccc(C(=O)N[C@H]4C[C@@H](C(=O)NC5(CC)CCCc6ccccc65)N(C(=O)[C@@H](NC(=O)[C@H](C)NC)C(C)(C)C)C4)c3)CN2C(=O)[C@@H](NC(=O)[C@H](C)NC)C(C)(C)C)CCCc2ccccc21` (stereo partly drawn) [Compound 50], the IC50 under setting [1] is more than 1 µM, the IC50 under setting [2] was 0.236 µM and the IC50 under setting [3] was determined as 0.122 µM.
Regarding `CCC1(NC(=O)[C@@H]2C[C@H](NC(=O)c3cccc(C(=O)N[C@H]4C[C@@H](C(=O)NC5(CC)CCCc6ccccc65)N(C(=O)[C@@H](NC(=O)[C@H](C)NC)C(C)(C)C)C4)c3)CN2C(=O)[C@@H](NC(=O)[C@H](C)NC)C(C)(C)C)CCCc2ccccc21` (stereo partly drawn) [Compound 51], the IC50 is, setting by setting: under setting [4], more than 1 µM; under setting [2], 0.104 µM; under setting [3], 0.081 µM.
`CCC1(NC(=O)[C@@H]2C[C@H](NC(=O)c3cc(C(=O)N[C@H]4C[C@@H](C(=O)NC5(CC)CCCc6ccccc65)N(C(=O)[C@@H](NC(=O)[C@H](C)NC)C(C)(C)C)C4)[nH]n3)CN2C(=O)[C@@H](NC(=O)[C@H](C)NC)C(C)(C)C)CCCc2ccccc21` (stereo partly drawn) [Compound 52]: the IC50 under setting [1] is more than 1 µM, the IC50 under setting [2] was determined as 0.046 µM and the IC50 under setting [3] was 0.052 µM.
